Measurements taken from the NIST ThermoML archive (doi:10.1016/j.jct.2016.07.005).

Legend:
[1] = 100 kPa, Liquid; for viscosity: Concentric cylinders viscometry; for mass density: Vibrating tube method
[2] = refractive index (Na D-line) (dimensionless); settings: 100 kPa, Liquid, Standard Abbe refractometry
[3] = xn = mol fraction of the nth substance listed; settings: 100 kPa, Liquid, x2 = 0; for viscosity: Concentric cylinders viscometry; for mass density: Vibrating tube method
[4] = refractive index (Na D-line) (dimensionless); xn = mol fraction of the nth substance listed; settings: 100 kPa, Liquid, Standard Abbe refractometry, x2 = 0

CC(O)CO (centres undefined) [1,2-propanediol]
Settings	mass density, [1] [kg/m3]	refractive index, [2]	viscosity, [1] [mPa·s]
293.15 K	1036.3	1.43279	59.56
298.15 K	1032.62	1.43111	44.14
303.15 K	1028.91	1.42941	33.25
308.15 K	1025.16	1.42773	25.5
313.15 K	1021.39	1.42601	19.78
318.15 K	1017.57	1.42429	15.76
323.15 K	1013.72	1.42257	12.75

CC(O)CO (centres undefined) [1,2-propanediol] + CN1CCC[C@H]1c1cccnc1
Settings	mass density, [3] [kg/m3]	refractive index, [4]	viscosity, [3] [mPa·s]
293.15 K	1036.3	1.43279	59.56
298.15 K	1032.62	1.43111	44.14
303.15 K	1028.91	1.42941	33.25
308.15 K	1025.16	1.42773	25.5
313.15 K	1021.39	1.42601	19.78
318.15 K	1017.57	1.42429	15.76
323.15 K	1013.72	1.42257	12.75

CN1CCC[C@H]1c1cccnc1 [(-)-3-(N-methylpyrrolidino)pyridine]
Settings	mass density, [1] [kg/m3]	refractive index, [2]	viscosity, [1] [mPa·s]
293.15 K	1010.23	1.52665	4.694
298.15 K	1006.16	1.52439	4.048
303.15 K	1002.1	1.52214	3.518
308.15 K	998.055	1.51988	3.088
313.15 K	994.014	1.5179	2.758
318.15 K	989.984	1.51592	2.411
323.15 K	985.962	1.51373	2.195

CCCCO [butan-1-ol]
Settings	mass density, [1] [kg/m3]	refractive index, [2]	viscosity, [1] [mPa·s]
293.15 K	809.819	1.39922	2.914
298.15 K	805.995	1.39719	2.564
303.15 K	802.148	1.39517	2.258
308.15 K	798.276	1.39311	1.994
313.15 K	794.372	1.39102	1.777
318.15 K	790.429	1.38896	1.589
323.15 K	786.444	1.38688	1.372
